Results published in US11179348B2, “Combination comprising pterostilbene for the treatment of cancer” (FUNDACIÓN UNIVERSIDAD CATÓLICA DE VALENCIA SAN VICENTE …, priority 2015, dated 2021).
Marks after values point to notes of the source that are not given here.

Key:
A2058 melanoma = assay: In vivo growth of A2058 melanoma xenografts in nu/nu mice; parameters: species or system human
[1] = test system: glucocorticoid receptors (GR); assay: GR content of human cancer cells by [3H]-labeled ligand whole-cell binding assay
corticosterone = assay: Plasma corticosterone levels (ELISA) in tumor-bearing mice; type: in vivo
From the text: Measurement of ACTH, Corticosterone, and NORA Levels.
Plasma levels of ACTH (Calbiotech, Inc., Spring Valley, Calif.), corticosterone (Kamiyama Biomedical Co., Seattle, Wash.), and NORA (IBL, Hamburg, Germany) were quantified by ELISA according to the instructions of the suppliers.

MDA-MB-231 cells = assay: GSH levels and glutathione- and oxidative stress-related enzyme activities in MDA-MB-231 cells growing in vivo; parameters: species or system human; settings: MDA-MB-231, in vivo Pter, day 35
Description: (§1) To measure enzyme activity, isolated tumor cells were homogenized in 0.1 M phosphate buffer (pH 7.2) at 4° C. GCL and GSS activities were measured as described previously (Obrador, E. et al. Hepatology 35, 74-81 (2002)). GPX (selenium dependent) activity was measured as described by Flohé and Gunzler (Flohe, L. & Gunzler, W. A. Methods Enzymol 105, 114-121 (1984)) using H2O2 as a substrate. GSR activity was determined as described by Akerboom and Sies (Akerboom, T. P. et al, Bull Eur Physiopathol Respir 17 Suppl, 221-227 (1981)). GGT activity was measured as described previously (Obrador, E. et al. Hepatology 35, 74-81 (2002)). GST activity was measured using an assay kit from Sigma. TXNRD activity, defined by the concentration of sodium-lipoate (disulfide) reduced to dehydrolipoate (dithiol) per milligram protein, was measured as previously described (Javvadi, P. et al. Cancer Res 70, 1941-1950 (2010)). SOD activity was measured as described by Flohé and Otting (Flohe, L. & Otting, F. Methods Enzymol 105, 93-104 (1984).) using 2 mM cyanide in the assay medium to distinguish mangano-type enzyme (SOD2) from the cuprozinc type (SOD1). CAT activity was analyzed as described by Aebi (Aebi, H. Methods Enzymol 105, 121-126 (1984)). NOX activity was measured by chemiluminescence following the methodology of Wind et al. (Wind, S. et al. Comparative pharmacology of chemically distinct NADPH oxidase inhibitors. Br J Pharmacol 161, 885-898 (2010)). Protein concentration was determined with the Pierce BCA protein assay (Fisher Scientific, Waltham, Mass.).
(§2) GSH, GSSG, NADP^+ and NADPH Determination.
(§3) GSH and GSSG were determined, following procedures previously described (Obrador, E. et al. PLoS One 9, e96466 (2014)), by LC/MS using the same equipment described above for pterostilbene determination. Cell processing was performed according to published methodology, where rapid N-ethylmaleimide derivatization was used to prevent GSH auto-oxidation (Asensi, M. et al. Anal Biochem 217, 323-328 (1994)). NADP^+ and NADPH were quantitated using an assay kit from Sigma (St. Louis, Mo.).
(§4) Isolation of Tumor Cells from Mouse Xenografts Using Enzymatic Digestion and a double Ficoll gradient.
(§5) To maximize the amount of isolated cells, avoiding the use of RFP-transfected cells and subsequent laser microdissection, an alternative methodology was set up. To maximize cell yield and viability the following combination of enzymes was used: collagenase III (200 U/ml; Sigma-Aldrich), DNase I (200 U/ml; Sigma-Aldrich) and trypsin (5 mg/ml; Invitrogen), and a non-enzymatic dissociation buffer (NEDB, Invitrogen). Briefly, mice were killed, and tumors were removed (avoiding skin, muscle and fat) into cold culture media and processed immediately. The tumors were minced into 1-3 mm fragments, which were then incubated with the dissociation solution (see above) for 30 min at 37° C. The tumor fragments were mixed up and down every 10 min using a […] micropipette with a tip cut to a diameter adapted to tissue fragment size. After each incubation period, the fragments were filtered through a […] nylon mesh cell strainer (BD Biosciences, San Diego, Calif., USA). The released cells were centrifuged at 1200 r.p.m. for 2 min and stored in cold CO2-independent medium with 30% FCS at […]. Fresh dissociation solution was added to the remaining tissue fragments for 30 min. Dissociation was stopped when no additional cells were released. The fragments were pushed through a sieve and all cells from all incubation periods were pooled and counted.
(§6) The dissociated cells were layered onto a double Ficoll gradient (Histopaque; Sigma-Aldrich; densities 1.077 and 1.119) and spun at 700 g for 30 min at room temperature. Cells removed from both interfaces were pooled and washed two times in CO2-independent medium and stored at 4° C. Debris and red blood cell elimination was improved with the dual-density gradient. […]

[2] = test system: MDA-MB-231 breast adenocarcinoma; assay: In vivo growth of MDA-MB-231 breast cancer xenografts; parameters: species or system human; settings: MDA-MB-231, day 35
Caco-2 cells = assay: GSH levels and glutathione- and oxidative stress-related enzyme activities in Caco-2 cells growing in vivo; parameters: species or system human; settings: Caco-2, in vivo Pter, day 28
Description: as §1, §2, §3, §4, §5, §6

`COc1cc(/C=C/c2ccc(O)cc2)cc(OC)c1` [Pter, trans-3,5-dimethoxy-4′-hydroxystilbene] was tested, and the “inhibition of tumor growth” value (A2058 melanoma; A2058, day 35, 30 mg Pter/kg i.v. every 48 h, vs controls) was “approx. 70%”, the Tumor vol. (A2058 melanoma; A2058-RFP, 35 days after inoculation, Pter 30 mg/kg i.v. every 48 h and/or CRC infusion 0.3 μg/h) was 258 ± 66* mm^3 and the GR number ([1]; A549, day 35) was 41 ± 10 10^3 GR/cell. For the same compound, the “GR number (binding sites/cell)” value ([1]; A2058-RFP tumors, day 35) was 71 ± 5 10^3 GR/cell, the “GR number (binding sites/cell)” value ([1]; AsPC-1-RFP tumors, day 28) was 63 ± 10 10^3 GR/cell and the “GR number (binding sites/cell)” value ([1]; BxPC-3-RFP tumors, day 35) was 115 ± 27 10^3 GR/cell. For the same compound, the GR number ([1]; Caco-2, day 28) was 7 ± 2 10^3 GR/cell, the GR number ([1]; HT-29, day 21) was 14 ± 3 10^3 GR/cell and the GR number ([1]; HepG2, day 35) was 45 ± 11 10^3 GR/cell. The GR number ([1]; LNCaP, day 49) was 3 ± 1 10^3 GR/cell, the GR number ([1]; MCF-7, day 28) was <1 10^3 GR/cell and the GR number ([1]; MDA-MB-231, day 35) was 18 ± 3 10^3 GR/cell. The “GR number (binding sites/cell)” value ([1]; MeWo-RFP tumors, day 35) was 45 ± 6 10^3 GR/cell, the “GR number (binding sites/cell)” value ([1]; MelJuso-RFP tumors, day 35) was 47 ± 4 10^3 GR/cell and the GR number ([1]; PC-3, day 21) was 21 ± 6 10^3 GR/cell. The GR number ([1]; SK-OV-3, day 49) was 25 ± 7 10^3 GR/cell, the CRC (corticosterone; A549-bearing mice, day 35, 12 h circadian time) was 61 ± 17 ng/mL plasma and the CRC (corticosterone; A2058-bearing mice, day 35, 12 h circadian time) was 123 ± 29 ng/mL plasma. The CRC (corticosterone; AsPC-1-bearing mice, day 28, 12 h circadian time) was 217 ± 33 ng/mL plasma, the CRC (corticosterone; B16-F1-bearing mice, day 15, 12 h circadian time) was 187 ± 36 ng/mL plasma and the CRC (corticosterone; BxPC-3-bearing mice, day 35, 12 h circadian time) was 88 ± 21 ng/mL plasma. It also gave a CRC (corticosterone; Caco-2-bearing mice, day 28, 12 h circadian time) of 106 ± 23 ng/mL plasma, a CRC (corticosterone; HT-29-bearing mice, day 21, 12 h circadian time) of 126 ± 36 ng/mL plasma and a CRC (corticosterone; HepG2-bearing mice, day 35, 12 h circadian time) of 187 ± 50 ng/mL plasma. The CRC (corticosterone; LNCaP-bearing mice, day 49, 12 h circadian time) was 77 ± 15 ng/mL plasma, the CRC (corticosterone; MCF-7-bearing mice, day 28, 12 h circadian time) was 75 ± 20 ng/mL plasma and the CRC (corticosterone; MDA-MB-231-bearing mice, day 35, 12 h circadian time) was 84 ± 24 ng/mL plasma. It also gave a CRC (corticosterone; MeWo-bearing mice, day 35, 12 h circadian time) of 87 ± 17 ng/mL plasma, a CRC (corticosterone; MelJuso-bearing mice, day 35, 12 h circadian time) of 80 ± 15 ng/mL plasma and a CRC (corticosterone; PC-3-bearing mice, day 21, 12 h circadian time) of 145 ± 30 ng/mL plasma. The CRC (corticosterone; SK-OV-3-bearing mice, day 49, 12 h circadian time) was 64 ± 18 ng/mL plasma, the corticosterone in plasma (corticosterone; melanoma-bearing mice, pterostilbene 30 mg/kg every 48 h (FIG. 2A)) was “to practically control values” and the CAT (MDA-MB-231 cells) was 0.6 ± 0.2 mU/10^6 cells. It also gave a GCL (MDA-MB-231 cells) of 66 ± 18 mU/10^6 cells, a GSH (MDA-MB-231 cells) of 11.5 ± 2.0 nmol/10^6 cells and a GSS (MDA-MB-231 cells) of 7.7 ± 1.2 mU/10^6 cells. The GSSG (MDA-MB-231 cells) was 0.2 ± 0.05 nmol/10^6 cells, the SOD1 (MDA-MB-231 cells) was 0.3 ± 0.08 U/10^6 cells and the SOD2 (MDA-MB-231 cells) was 0.03 ± 0.01 U/10^6 cells. For the same compound, the Tumor vol. [2] was 266 ± 89* mm^3, the CAT (Caco-2 cells) was 0.7 ± 0.2 mU/10^6 cells and the GCL (Caco-2 cells) was 45 ± 14 mU/10^6 cells. The GSH (Caco-2 cells) was 8 ± 3 nmol/10^6 cells, the GSS (Caco-2 cells) was 5.5 ± 1.9 mU/10^6 cells and the GSSG (Caco-2 cells) was 0.2 ± 0.1 nmol/10^6 cells. For the same compound, the SOD1 (Caco-2 cells) was 0.8 ± 0.3 U/10^6 cells and the SOD2 (Caco-2 cells) was 0.04 ± 0.01 U/10^6 cells.
